Test results reported in PMC11833736 (ACS Pharmacology & Translational Science, 2025).
Several values for one entry are separate records, joined by “and”; a condition that tells them apart may be missing. Equal entries are not always repeated.

Legend:
[1] = test system: SH-SY5Y cells; assay: Cytotoxicity, SRB end-point assay, dark or green light; assay type: cell-based; conditions: for EC50: kept in the dark, SRB, normoxic (21% O2)
[2] = test system: U-87MG cells; assay: Ru cellular uptake by ICP-MS; assay type: in vitro ADME; conditions: 10 μM; for Ru cellular uptake: dark
Excerpt: The cellular accumulation of Ru^2+ can provide additional information about how differences in anticancer efficacy may relate to the amount of the Ru prodrug in the cell before light activation. For instance, low uptake often leads to limited cytotoxicity due to limited access to the drug target. […] Similar results have been observed in A549 lung cancer cells previously.[56] […] For unknown reasons, it appears that the amine bridge in the i-diqa ligand facilitates the uptake of ruthenium compound [3](PF6)2.
Materials: 65% nitric acid (Suprapur, Merck) was used in the sample digestion process, while diluted 1% nitric acid (v/v) was employed as a carrying solution throughout the ICP measurements. For preparation of calibration and internal standards, National Institute of Standards and Technology (NIST)-traceable 1000 mg/L elemental standards were used (TraceCERT, Fluka). Approximately 18 MΩ cm^–1 water (Milli-Q) was employed in all sample preparation and analysis steps.
Instrumentation: Calibration standards were prepared in a Secuflow fume hood (SCALA) to prevent contamination by atmospheric particulates. The standard samples and measurement samples were analyzed for trace elements using the NexION 2000 (PerkinElmer) ICP-MS instrument equipped with a concentric glass nebulizer and a Peltier-cooled glass spray chamber. An SC2 DX autosampler (PerkinElmer) was connected to ICP-MS for sample introduction. Syngistix software for ICP-MS (v.2.5, PerkinElmer) was used for all data recording and processing. Five trace elemental calibration standards for ICP-MS analysis were prepared using NIST-traceable 1000 mg/L Ru standards: 0, 1, 5, 20, and 100 μg/L. Samples were analyzed without dilution in the original delivery containers to minimize the possibility of contamination. Here, 10 μg/L Rh and In were used as internal standards. To check the calibration, samples were analyzed with a blank measurement and a repeat measurement with one of the calibration standards.
Sample preparation: 1 mL of U-87MG cells were seeded in 12-well plates (Greiner, No. 665180; 400.000 cells per well). […] Afterward, the cells were trypsined, collected, and centrifuged. The resulting cell pellet was dissolved in 1 mL of PBS and counted via a BioRad TC20 automated cell counter. Afterward, the solution was centrifuged and washed again with PBS with subsequent centrifuging. This washing step was repeated twice. The resulting cell pellet was digested in 0.5 mL of 65% HNO3 overnight in a hot oven (90 °C). The solution was diluted with Milli-Q water to 10 mL, and the Ru content [ppb] was measured by ICP-MS.

[3] = test system: SH-SY5Y cells; assay: Ru cellular uptake by ICP-MS, dark or green light; assay type: in vitro ADME; conditions: kept in the dark
Protocol: These surprising results led us to further investigate whether the uptake of the respective compounds plays a pivotal role in the alternation of the proliferation. […] The complex was allowed to incubate for 24 h after irradiation before the ruthenium cellular content was analyzed by ICP-MS. […] We finally decided to incubate the SH-SY5Y cells with the EC50 values obtained from the cytotoxicity experiment using the U-87MG cell, as those procedures would allow one to observe the effect of the prodrug on the healthy neuron-like cells when treated with the phototoxic compound dose. […] Overall, cellular uptake in neuron-like SH-SY5Y cells followed the same trends as those for GBM cells U-87MG in the dark, while uptake was much higher after light activation.
1 mL of SH-SY5Y cells were seeded in 12-well plates (Greiner, No. 665180; 500.000 cells per well). […] After an additional 24 h of incubation, the cells were trypsined, collected, and centrifuged. The resulting cell pellet was dissolved in 1 mL of PBS and counted via a BioRad TC20 automated cell counter. Afterward, the solution was centrifuged and washed again with PBS with subsequent centrifuging two more times. The resulting cell pellet was digested in 0.5 mL of HNO3 overnight in a hot oven (90 °C). The solution was diluted with Milli-Q water to 10 mL, and the Ru and Ca content [ppb] was measured via ICP-MS.

[4] = target: AChE (Electrophorus electricus, UniProt O42275); conditions: for PI: AChE, IC50 dark / IC50 green light; for IC50: read-out: IC50,D, isolated AChE, 30 min in the dark, read 35 min after DTNB addition
Excerpt: Among all enzymes involved in transmembrane signaling, another important one is AChE. In a modified procedure (for further details, see the Experimental Section), we checked whether the ruthenium complexes were able to inhibit AChE in the dark and after light activation. The colorimetric assay used Ellman’s reagent. […] The conversion of 5,5′-dithiobis(2-nitrobenzoic acid) (DTNB) to yellow 2-nitro-5-thiobenzoate (TNB) initiated by the addition of acetylthiocholine was then detected by UV–vis spectroscopy every 5 min for a total time of […]. […] The solution was further diluted 1:50 in 50 mM Tris buffer, pH = 8 (10 μL in 490 μL), and then placed in 4.5 mL of 50 mM Tris buffer, pH = 8. […] 50 μL of the enzyme and 50 μL of the complex solution were added to a 96-well plate in triplicates. […] Meanwhile, a 10 mM solution of acetylthiocholine iodide and 10 mM DTNB was prepared. After the respective time, in each well, 5 μL of the acetylthiocholine iodide and DTNB mixture was added. The absorbance was read at a microplate Tecan reader at 410 nm every 5 min for in total 40 min.

[5] = Stability in the dark in the presence of L-glutathione (UV-vis); assay type: physicochemical; conditions: water, 37 °C, 500 μM L-glutathione, spectra after 2 and 24 h
Protocol: The synthesis and characterization of all three complexes have been described earlier and can be found in refs ([56]) and ([57]). In water or OptiMEM cell medium, the complexes were also previously found to be stable in the dark for at least 24 h at 37 °C. Upon blue or green light irradiation (λ = 452 or 517 nm), they are activated by photosubstitution of the thioether ligand to afford the aqua ruthenium complex and the free thioether ligand.[56] […] The UV–vis spectra were then recorded after 2 and 24 h separately. […] Additionally, we could not observe any color change, which is typical when one of the ligands is exchanged against another one.
UV–vis spectroscopy experiments were performed on a Cary 60 Varian spectrometer equipped with a temperature control set to 310 K and a magnetic stirrer. The measurements were performed in a quartz cuvette containing 3 mL of solution. […] Then, the UV–vis spectrum was recorded without the presence of GSH. After 4 min, GSH was added (0.5 mM) and UV–vis spectra were recorded directly after and after 2 and 24 h, while the vial was kept in the dark and at 37 °C.

[6] = cited from earlier work
[7] = test system: U-87MG glioblastoma cells; assay: Cytotoxicity, SRB end-point assay, dark or green light; conditions: read-out: EC50,D, kept in the dark, 24 h + 48 h incubation, normoxic (21% O2)

AChE, sequence (O42275 24-633): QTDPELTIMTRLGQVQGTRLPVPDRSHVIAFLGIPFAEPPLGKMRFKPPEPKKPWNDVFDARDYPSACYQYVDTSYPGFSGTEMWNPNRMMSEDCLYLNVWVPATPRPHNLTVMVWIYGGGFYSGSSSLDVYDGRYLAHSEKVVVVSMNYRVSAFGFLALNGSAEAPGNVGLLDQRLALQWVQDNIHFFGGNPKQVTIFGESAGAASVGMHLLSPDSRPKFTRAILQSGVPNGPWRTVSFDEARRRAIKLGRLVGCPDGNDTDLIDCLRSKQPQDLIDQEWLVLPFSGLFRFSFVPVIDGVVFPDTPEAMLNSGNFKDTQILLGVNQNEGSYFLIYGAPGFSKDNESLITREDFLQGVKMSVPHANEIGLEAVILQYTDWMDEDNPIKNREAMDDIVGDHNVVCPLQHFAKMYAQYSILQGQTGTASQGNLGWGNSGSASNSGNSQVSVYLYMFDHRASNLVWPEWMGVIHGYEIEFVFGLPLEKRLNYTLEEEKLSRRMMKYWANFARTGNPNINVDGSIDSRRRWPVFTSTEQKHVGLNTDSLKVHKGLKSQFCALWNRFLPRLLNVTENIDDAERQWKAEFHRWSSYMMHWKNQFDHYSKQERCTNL

SMILES | concentration required to block cell growth ([1]; in the dark) | EC50 [1] | Uptake in % ([2]; 6 h) | Ru cellular uptake ([2]; 6 h incubation) | Uptake in % ([2]; 24 h) | Ru cellular uptake ([2]; 24 h incubation) | Ru uptake, Dark ([3]; 20 μM) | PI [4] | IC50 [4] | stability in the dark with GSH (UV-vis, in words) [5] | LogP [6] | EC50 [7] | Ru uptake, Dark ([3]; 10 μM)
CSCCO.F[P-](F)(F)(F)(F)F.F[P-](F)(F)(F)(F)F.[Ru+2].c1ccc(-c2cccc(-c3ccccn3)n2)nc1.c1ccc2cc(-c3cc4ccccc4cn3)ncc2c1 [[2](PF6)2] | > 40 µM | > 100 µM | 0.8% and 0.82% | 0.5 ng Ru/mio. cells and 0.54 ± 0.08 ng Ru/mio. cells | 1.5% | 0.82 ± 0.09 ng Ru/mio. cells | 1.02 ± 0.63 ng Ru/mio. cells and 1.0 ng Ru/mio. cells | >1.5 | > 15 µM | no isosbestic points suggesting ligand exchange were observed | 3.08 | 19 µM and 19.4 µM | –
CSCCO.F[P-](F)(F)(F)(F)F.F[P-](F)(F)(F)(F)F.[Ru+2].c1ccc(-c2cccc(-c3ccccn3)n2)nc1.c1ccc2cc(Nc3cc4ccccc4cn3)ncc2c1 [[3](PF6)2] | – | 34.2 µM | 12.4% | 2.1 ng Ru/mio. cells and 2.14 ± 0.49 ng Ru/mio. cells | ~11.5% | 1.98 ng Ru/mio. cells and 1.98 ± 0.33 ng Ru/mio. cells | – | 2 | 9.6 µM | no isosbestic points suggesting ligand exchange were observed | 2.92 | 37 µM | 2.44 ± 0.63 ng Ru/mio. cells and 2.4 ng Ru/mio. cells
